Reference: US10954240B2, “Compounds inhibiting leucine-rich repeat kinase enzyme activity” (Merck Sharp & Dohme Corp., priority 2014, dated 2021)
Structures can show the parent of a compound that is named as a salt.

target: LRRK2 (G2019S mutation, GST-LRRK2 (amino acids 970-2527)) (Homo sapiens (Human), UniProt Q5S007, G2019S); experiment: LRRK2 Km ATP LanthaScreen Assay; format: biochemical; settings: mean IC50 of several test results
Description: Unless otherwise noted, all LRRK2 IC50 data presented in tables refers to the LRRK2 Km ATP LanthaScreen™ Assay that is described in the Biological Assay section.
The data presented for the Km ATP LanthaScreen™ Assay represents mean IC50 values based on several test results and may have reasonable deviations depending on the specific conditions and reagents used. Reagents for the LRRK2 Km ATP LanthaScreen™ Assay were purchased from Life Technologies Corporation.
LRRK2 Km ATP LanthaScreen™ Assay
a) 400 nl of a 1:2.15 serial dilution of test compound (98 μM top assay concentration) is spotted via Labcyte Echo to certain wells in a 384 well black, untreated plate. Control wells contain 400 nl of either DMSO or 400 nl of a known inhibitor in DMSO.
c) A 30 minute room temperature incubation is followed by addition of 10 μl of 800 nM fluorescein labeled LRRKtide peptide substrate and 186 μM ATP solution in 1× assay buffer to all wells.
d) After a 60 minute room temperature incubation, 20 μl of TR-FRET Dilution Buffer (Invitrogen PV3756B) containing 4 nM Tb-labeled anti-phospho LRRKtide antibody and 20 mM EDTA is added to all wells.
e) Plates are incubated at room temperature for 1 hour and read on an Envision™ multi-mode plate reader with LanthaScreen™ settings. Results are analysed using Assay Data Analyzer.

LRRK2 (G2019S mutation, GST-LRRK2 (amino acids 970-2527)), sequence (Q5S007 970-2527 G2019S): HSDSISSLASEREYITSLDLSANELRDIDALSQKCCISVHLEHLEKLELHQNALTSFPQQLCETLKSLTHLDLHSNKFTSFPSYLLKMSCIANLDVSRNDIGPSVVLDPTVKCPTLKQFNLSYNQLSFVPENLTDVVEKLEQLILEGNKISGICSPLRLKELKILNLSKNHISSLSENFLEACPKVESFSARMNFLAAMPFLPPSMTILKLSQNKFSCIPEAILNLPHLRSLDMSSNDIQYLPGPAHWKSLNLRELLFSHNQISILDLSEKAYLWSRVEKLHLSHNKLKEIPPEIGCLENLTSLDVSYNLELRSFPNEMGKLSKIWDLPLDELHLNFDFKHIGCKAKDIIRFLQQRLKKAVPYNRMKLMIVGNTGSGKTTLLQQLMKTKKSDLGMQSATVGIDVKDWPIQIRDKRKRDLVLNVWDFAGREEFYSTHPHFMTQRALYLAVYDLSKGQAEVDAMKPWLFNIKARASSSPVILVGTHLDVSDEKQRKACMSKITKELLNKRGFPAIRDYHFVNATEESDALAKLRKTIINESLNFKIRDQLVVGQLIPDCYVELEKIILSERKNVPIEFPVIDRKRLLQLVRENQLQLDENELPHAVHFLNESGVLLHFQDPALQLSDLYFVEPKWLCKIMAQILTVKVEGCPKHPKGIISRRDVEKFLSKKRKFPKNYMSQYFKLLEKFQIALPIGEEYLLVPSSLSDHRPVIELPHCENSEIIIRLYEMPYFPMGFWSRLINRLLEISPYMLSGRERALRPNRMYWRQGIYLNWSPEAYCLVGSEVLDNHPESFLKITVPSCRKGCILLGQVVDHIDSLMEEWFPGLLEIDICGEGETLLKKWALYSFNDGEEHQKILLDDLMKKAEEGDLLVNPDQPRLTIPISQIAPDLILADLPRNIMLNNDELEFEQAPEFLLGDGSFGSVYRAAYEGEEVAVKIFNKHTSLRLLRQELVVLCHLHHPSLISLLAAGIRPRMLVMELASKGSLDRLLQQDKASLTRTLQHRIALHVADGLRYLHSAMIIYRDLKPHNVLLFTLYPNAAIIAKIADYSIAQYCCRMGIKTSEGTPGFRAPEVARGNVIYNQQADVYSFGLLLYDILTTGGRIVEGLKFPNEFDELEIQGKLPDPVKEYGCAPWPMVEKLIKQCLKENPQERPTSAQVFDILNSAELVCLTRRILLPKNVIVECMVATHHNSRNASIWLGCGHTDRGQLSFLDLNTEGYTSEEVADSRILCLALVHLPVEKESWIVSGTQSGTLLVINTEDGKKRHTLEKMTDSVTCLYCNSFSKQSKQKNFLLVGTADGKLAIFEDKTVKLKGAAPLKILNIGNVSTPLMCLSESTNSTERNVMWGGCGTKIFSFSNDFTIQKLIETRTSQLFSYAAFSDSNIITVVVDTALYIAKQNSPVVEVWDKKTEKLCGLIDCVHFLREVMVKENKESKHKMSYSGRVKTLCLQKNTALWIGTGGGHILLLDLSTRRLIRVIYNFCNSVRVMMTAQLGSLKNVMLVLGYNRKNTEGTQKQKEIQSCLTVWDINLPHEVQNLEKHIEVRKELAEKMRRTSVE

SMILES | IC50 [nM]
Cn1cc(-c2ccc3cnn(-c4cc(N5CCOCC5)ncn4)c3c2)cn1 [Example 68, 6-(1-methyl-1H-pyrazol-4-yl)-1-(6-morpholin-4-ylpyrimidin-4-yl)-1H-indazole] | 79
c1cncc(-c2ccc3cnn(-c4cc(N5CCOCC5)ncn4)c3c2)c1 [Example 67, 1-(6-morpholin-4-ylpyrimidin-4-yl)-6-pyridin-3-yl-1H-indazole] | 130
CC(C)Oc1ccc2cnn(-c3ccnc(N4CC(C(C)(C)O)C4)c3)c2c1 [Example 30, 2-(1-(4-(6-isopropoxy-1H-indazol-1-yl)pyridin-2-yl)azetidin-3-yl)propan-2-ol] | 418
CC(C)Oc1ccc2cnn(-c3ccnc(N4CCN(CC5CCC5)CC4)c3)c2c1 [Example 27, 1-(2-(4-(cyclobutylmethyl)piperazin-1-yl)pyridin-4-yl)-6-isopropoxy-1H-indazole] | 362
c1nc(N2CCOCC2)cc(-n2ncc3ccc(-c4cn[nH]c4)cc32)n1 [Example 70, 1-(6-morpholin-4-ylpyrimidin-4-yl)-6-(1H-pyrazo-4-yl)-1H-indazole] | 77
CC(C)Oc1ccc2cnn(-c3ccnc(N4CCN(C)C(=O)C4)c3)c2c1 [Example 31, 4-(4-(6-isopropoxy-1H-indazol-1-yl)pyridin-2-yl)-1-methylpiperazin-2-one] | 443
c1cc(-c2ccc3cnn(-c4cc(N5CCOCC5)ncn4)c3c2)[nH]n1 [Example 69, 1-(6-morpholin-4-ylpyrimidin-4-yl)-6-(1H-pyrazol-5-yl)-1H-indazole] | 10.5
CO[C@H]1CN(c2cc(-n3ncc4ccc(-c5cnn(C)c5)cc43)ccn2)C[C@@H]1O [Example 48, (3S,4S)-4-methoxy-1-(4-(6-(1-methyl-1H-pyrazol-4-yl)-1H-indazol-1-yl)pyridin-2-yl)pyrrolidin-3-ol] | 399
CC(C)Oc1ccc2cnn(-c3ccnc(N4CC[C@@H](F)C4)c3)c2c1 [Example 42, (R)-1-(2-(3-fluoropyrrolidin-1-yl)pyridin-4-yl)-6-isopropoxy-1H-indazole] | 412
Cn1cc(-c2ccc3cnn(-c4ccnc(N5CC[C@H](F)C5)c4)c3c2)cn1 [Example 13, (S)-1-(2-(3-fluoropyrrolidin-1-yl)pyridin-4-yl)-6-(1-methyl-1H-pyrazol-4-yl)-1H-indazole] | 108
Cn1cc(-c2ccc3cnn(-c4ccnc(N5CCC(C)(O)C5)c4)c3c2)cn1 (stereo not drawn) [Example 53, 3-methyl-1-(4-(6-(1-methyl-1H-pyrazol-4-yl)-1H-indazol-1-yl)pyridin-2-yl)pyrrolidin-3-ol] | 131
Cn1cc(-c2ccc3cnn(-c4ccnc(N5CC(F)C5)c4)c3c2)cn1 [Example 14, 1-(2-(3-fluoroazetidin-1-yl)pyridin-4-yl)-6-(1-methyl-1H-pyrazol-4-yl)-1H-indazole] | 145
C[C@H]1CN(c2cc(-n3ncc4ccc(-c5cnn(C)c5)cc43)ccn2)CCO1 [Example 50, (S)-2-methyl-4-(4-(6-(1-methyl-1H-pyrazol-4-yl)-1H-indazol-1-yl)pyridin-2-yl)morpholine] | 141
CC(C)Oc1ccc2cnn(-c3ccnc(N4CCN(CCO)CC4)c3)c2c1 [Example 39, 2-(4-(4-(6-isopropoxy-1H-indazol-1-yl)pyridin-2-yl)piperazin-1-yl)ethanol] | 193
Cn1cc(-c2ccc3cnn(-c4ccnc(N5CCN(CCO)CC5)c4)c3c2)cn1 [Example 55, 2-(4-(4-(6-(1-methyl-1H-pyrazol-4-yl)-1H-indazol-1-yl)pyridin-2-yl)piperazin-1-yl)ethanol] | 70
CN1CCN(c2cc(-n3ncc4ccc(-c5cnn(C)c5)cc43)ccn2)CC1=O [Example 10, 1-methyl-4-(4-(6-(1-methyl-1H-pyrazol-4-yl)-1H-indazol-1-yl)pyridin-2-yl)piperazin-2-one] | 126
Cn1cc(-c2ccc3cnn(-c4ccnc(N5CCC(S(C)(=O)=O)CC5)c4)c3c2)cn1 [Example 16, 6-(1-methyl-1H-pyrazol-4-yl)-1-(2-(4-(methylsulfonyl)piperidin-1-yl)pyridin-4-yl)-1H-indazole] | 128
CCc1nnc2n1CCN(c1cc(-n3ncc4ccc(-c5cnn(C)c5)cc43)ccn1)C2 [Example 51, 3-ethyl-7-(4-(6-(1-methyl-1H-pyrazol-4-yl)-1H-indazol-1-yl)pyridin-2-yl)-5,6,7,8-tetrahydro-[1,2,4]triazolo[4,3-a]pyrazine] | 217
CS(=O)(=O)N1CCN(c2cc(-n3ncc4ccc(-c5cccnc5)cc43)ncn2)CC1 [Example 62, 1-{6-[4-(methylsulfonyl)piperazin-1-yl]pyrimidin-4-yl}-6-pyridin-3-yl-1H-indazole] | 486
Cn1cc(-c2ccc3cnn(-c4ccnc(N5CCn6ccnc6C5)c4)c3c2)cn1 [Example 52, 7-(4-(6-(1-methyl-1H-pyrazol-4-yl)-1H-indazol-1-yl)pyridin-2-yl)-5,6,7,8-tetrahydroimidazo[1,2-a]pyrazine] | 189

SMILES | IC50 [nM]
CC(C)Oc1ccc2cnn(-c3ccnc(N4CCOCC4)c3)c2c1 [Example 4, 4-(4-(6-isopropoxy-1H-indazol-1-yl)pyridin-2-yl)morpholine hydrochloride] | 122
c1ccc2c(c1)cnn2-c1ccnc(N2CCOCC2)c1 [Example 2, 4-(4-(1H-indazol-1-yl)pyridin-2-yl)morpholine] | 633
CC(C)Oc1ccc2cnn(-c3ccnc(N4CCCC4)c3)c2c1 [Example 37, 6-isopropoxy-1-(2-(pyrrolidin-1-yl)pyridin-4-yl)-1H-indazole] | 229
Cn1cc(-c2ccc3cnn(-c4ccnc(N5CCC(O)CC5)c4)c3c2)cn1 [Example 44, 1-(4-(6-(1-methyl-1H-pyrazol-4-yl)-1H-indazol-1-yl)pyridin-2-yl)piperidin-4-ol] | 100
Cn1cc(-c2cc(F)c3cnn(-c4ccnc(N5CCOCC5)c4)c3c2)cn1 [Example 3, 4-(4-(4-fluoro-6-(1-methyl-1H-pyrazol-4-yl)-1H-indazol-1-yl)pyridin-2-yl)morpholine] | 228
CCc1nnc2n1CCN(c1cc(-n3ncc4ccc(OC(C)C)cc43)ccn1)C2 [Example 24, 3-ethyl-7-(4-(6-isopropoxy-1H-indazol-1-yl)pyridin-2-yl)-5,6,7,8-tetrahydro-[1,2,4]triazolo[4,3-a]pyrazine] | 435
COC1(C)CN(c2cc(-n3ncc4ccc(OC(C)C)cc43)ccn2)C1 [Example 41, 6-isopropoxy-1-(2-(3-methoxy-3-methylazetidin-1-yl)pyridin-4-yl)-1H-indazole] | 890
CC(C)Oc1ccc2cnn(-c3ccnc(N4CC[C@H](F)C4)c3)c2c1 [Example 43, (S)-1-(2-(3-fluoropyrrolidin-1-yl)pyridin-4-yl)-6-isopropoxy-1H-indazole] | 950
Cn1cc(-c2ccc3cnn(-c4ccnc(N5CCN(C(=O)OC(C)(C)C)CC5)c4)c3c2)cn1 [Example 15, tert-butyl 4-(4-(6-(1-methyl-1H-pyrazol-4-yl)-1H-indazol-1-yl)pyridin-2-yl)piperazine-1-carboxylate] | 34
CS(=O)(=O)N1CCN(c2cc(-n3ncc4ccc(-c5ccn[nH]5)cc43)ncn2)CC1 [Example 64, 1-{6-[4-(methylsulfonyl)piperazin-1-yl]pyrimidin-4-yl}-6-(1H-pyrazol-5-yl)-1H-indazole] | 18
CC(C)Oc1ccc2cnn(-c3ccnc(N4CCOC(CCO)C4)c3)c2c1 (stereo not drawn) [Example 25, 2-(4-(4-(6-isopropoxy-1H-indazol-1-yl)pyridin-2-yl)morpholin-2-yl)ethanol] | 412
Cn1cc(-c2ccc3cnn(-c4ccnc(N5CCCC5)c4)c3c2)cn1 [Example 46, 6-(1-methyl-1H-pyrazol-4-yl)-1-(2-(pyrrolidin-1-yl)pyridin-4-yl)-1H-indazole] | 74
CC(C)Oc1ccc2cnn(-c3ccnc(N4CCN(c5ncccn5)CC4)c3)c2c1 [Example 33, 6-isopropoxy-1-(2-(4-(pyrimidin-2-yl)piperazin-1-yl)pyridin-4-yl)-1H-indazole] | 326
CS(=O)(=O)N1CCN(c2cc(-n3ncc4ccc(-c5cn[nH]c5)cc43)ncn2)CC1 [Example 66, 1-{6-[4-(methylsulfonyl)piperazin-1-yl]pyrimidin-4-yl}-6-(1H-pyrazol-4-yl)-1H-indazole] | 68
c1cc(-n2ncc3ccc(-c4cn[nH]c4)cc32)cc(N2CCOCC2)n1 [Example 18, 4-(4-(6-(1H-pyrazol-4-yl)-1H-indazol-1-yl)pyridin-2-yl)morpholine] | 73
CC(C)Oc1ccc2cnn(-c3ccnc(N4C[C@@H](C)O[C@@H](C)C4)c3)c2c1 [Example 32, cis-4-(4-(6-isopropoxy-1H-indazol-1-yl)pyridin-2-yl)-2,6-dimethylmorpholine] | 245
CC(C)Oc1ccc2cnn(-c3ccnc(N4CCC(O)C4)c3)c2c1 (stereo not drawn) [Example 34, 1-(4-(6-isopropoxy-1H-indazol-1-yl)pyridin-2-yl)pyrrolidin-3-ol] | 307
CC(C)Oc1ccc2cnn(-c3ccnc(N4CCC4)c3)c2c1 [Example 26, 1-(2-(azetidin-1-yl)pyridin-4-yl)-6-isopropoxy-1H-indazole] | 584
CC(C)Oc1ccc2cnn(-c3ccnc(N4CCC(O)CC4)c3)c2c1 [Example 40, 1-(4-(6-isopropoxy-1H-indazol-1-yl)pyridin-2-yl)piperidin-4-ol] | 378
